For assay [1], the system named is A549. The experiment in a line: cells. The conditions noted are these: Homo sapiens, A549, 72 h.
Description: Antiproliferative activity against human A549 cells after 72 hrs by MTT assay
The test system of assay [2] is HT-29. The experiment in a line: cells. The conditions noted are these: Homo sapiens, HT-29, 72 h.
Assay [3] relates to NCI-H460. The experiment in a line: Antiproliferative activity against human NCI-H460 cells after 72 hrs by MTT assay. The class given is functional, cell-based. The conditions noted are these: NCI-H460, 72 h.
The subject of assay [4] is U-87 MG. The experiment in a line: Antiproliferative activity against human U87MG cells after 72 hrs by MTT assay. The class given is functional, cell-based, U-87MG ATCC.
Assay [5] has as its target Hepatocyte growth factor receptor (Homo sapiens, UniProt P08581). The experiment in a line: Inhibition of cMET (unknown origin) using poly(Glu,Tyr) 4:1 substrate after 30 mins by HTFR analysis.
The target of assay [6] is Vascular endothelial growth factor receptor 2 (Homo sapiens, UniProt P35968). The experiment in a line: Inhibition of VEGFR2 (unknown origin) using poly(Glu, Tyr) 4:1 as substrate after 30 mins by HTRF assay. Background: In TR-FRET formats the signal depends on donor and acceptor labels being close together.
Assay [7] deals with HT-29. The experiment in a line: Potency index, ratio of foretinib IC50 to compound IC50 for antiproliferative activity against human HT-29 cells. The class given is functional.
Assay [8] deals with Mast/stem cell growth factor receptor Kit (Homo sapiens, UniProt P10721). The experiment in a line: Inhibition of cKIT (unknown origin) using poly(Glu, Tyr) 4:1 as substrate after 30 mins by HTRF assay.
The target of assay [9] is Epidermal growth factor receptor (Homo sapiens, UniProt P00533). The experiment in a line: Inhibition of EGFR (unknown origin) using poly(Glu, Tyr) 4:1 as substrate after 30 mins by HTRF assay.
The target of assay [10] is Platelet-derived growth factor receptor beta (Homo sapiens, UniProt P09619). The experiment in a line: Inhibition of PDGFRbeta (unknown origin) using poly(Glu, Tyr) 4:1 as substrate after 30 mins by HTRF assay.
For assay [11], the system named is A549. The experiment in a line: Potency index, ratio of foretinib IC50 to compound IC50 for antiproliferative activity against human A549 cells. The class given is functional.
Assay [12] concerns NCI-H460. The experiment in a line: Potency index, ratio of foretinib IC50 to compound IC50 for antiproliferative activity against human NCI-H460 cells. The class given is functional.
The target in assay [13] is T1, Receptor-type tyrosine-protein kinase FLT3 (Homo sapiens, UniProt P36888).
T1 sequence (P36888 whole entry): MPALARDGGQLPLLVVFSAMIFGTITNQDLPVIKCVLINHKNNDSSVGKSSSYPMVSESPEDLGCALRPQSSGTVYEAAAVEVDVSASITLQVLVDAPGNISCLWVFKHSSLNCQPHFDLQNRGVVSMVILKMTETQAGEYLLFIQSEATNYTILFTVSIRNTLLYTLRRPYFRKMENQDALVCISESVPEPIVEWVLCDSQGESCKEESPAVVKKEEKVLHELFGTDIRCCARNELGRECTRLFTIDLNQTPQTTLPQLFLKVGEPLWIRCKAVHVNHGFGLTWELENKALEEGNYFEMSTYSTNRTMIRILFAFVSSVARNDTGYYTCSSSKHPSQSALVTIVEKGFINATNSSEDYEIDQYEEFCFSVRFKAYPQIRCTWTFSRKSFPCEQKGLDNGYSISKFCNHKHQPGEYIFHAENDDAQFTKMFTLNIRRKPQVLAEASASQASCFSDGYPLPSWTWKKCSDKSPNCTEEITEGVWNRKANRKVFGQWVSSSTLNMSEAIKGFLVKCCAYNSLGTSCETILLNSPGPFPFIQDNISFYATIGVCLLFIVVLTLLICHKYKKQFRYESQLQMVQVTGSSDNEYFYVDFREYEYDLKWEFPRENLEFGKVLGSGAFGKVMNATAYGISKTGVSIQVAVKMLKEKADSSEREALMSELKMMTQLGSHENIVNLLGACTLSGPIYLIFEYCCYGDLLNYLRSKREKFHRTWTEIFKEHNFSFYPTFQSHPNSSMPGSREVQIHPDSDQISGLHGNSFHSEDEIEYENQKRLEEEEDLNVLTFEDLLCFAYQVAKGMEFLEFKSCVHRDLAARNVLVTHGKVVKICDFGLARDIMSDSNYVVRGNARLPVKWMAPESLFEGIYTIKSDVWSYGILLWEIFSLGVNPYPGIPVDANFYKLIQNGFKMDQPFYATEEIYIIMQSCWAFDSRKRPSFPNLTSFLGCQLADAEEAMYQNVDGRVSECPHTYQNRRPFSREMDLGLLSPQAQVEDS
The experiment in a line: Inhibition of Flt-3 (unknown origin) using poly(Glu, Tyr) 4:1 as substrate after 30 mins by HTRF assay.

Each structure is given as a SMILES string.

This is an account of results in ChEMBL document CHEMBL4251577, “Synthesis and antiproliferative activity of pyrrolo[2,3-b]pyridine derivatives bearing the 1,8-naphthyridin-2-one moiety” (Eur J Med Chem, 2018).

Hepatocyte growth factor receptor, sequence (P08581 whole entry): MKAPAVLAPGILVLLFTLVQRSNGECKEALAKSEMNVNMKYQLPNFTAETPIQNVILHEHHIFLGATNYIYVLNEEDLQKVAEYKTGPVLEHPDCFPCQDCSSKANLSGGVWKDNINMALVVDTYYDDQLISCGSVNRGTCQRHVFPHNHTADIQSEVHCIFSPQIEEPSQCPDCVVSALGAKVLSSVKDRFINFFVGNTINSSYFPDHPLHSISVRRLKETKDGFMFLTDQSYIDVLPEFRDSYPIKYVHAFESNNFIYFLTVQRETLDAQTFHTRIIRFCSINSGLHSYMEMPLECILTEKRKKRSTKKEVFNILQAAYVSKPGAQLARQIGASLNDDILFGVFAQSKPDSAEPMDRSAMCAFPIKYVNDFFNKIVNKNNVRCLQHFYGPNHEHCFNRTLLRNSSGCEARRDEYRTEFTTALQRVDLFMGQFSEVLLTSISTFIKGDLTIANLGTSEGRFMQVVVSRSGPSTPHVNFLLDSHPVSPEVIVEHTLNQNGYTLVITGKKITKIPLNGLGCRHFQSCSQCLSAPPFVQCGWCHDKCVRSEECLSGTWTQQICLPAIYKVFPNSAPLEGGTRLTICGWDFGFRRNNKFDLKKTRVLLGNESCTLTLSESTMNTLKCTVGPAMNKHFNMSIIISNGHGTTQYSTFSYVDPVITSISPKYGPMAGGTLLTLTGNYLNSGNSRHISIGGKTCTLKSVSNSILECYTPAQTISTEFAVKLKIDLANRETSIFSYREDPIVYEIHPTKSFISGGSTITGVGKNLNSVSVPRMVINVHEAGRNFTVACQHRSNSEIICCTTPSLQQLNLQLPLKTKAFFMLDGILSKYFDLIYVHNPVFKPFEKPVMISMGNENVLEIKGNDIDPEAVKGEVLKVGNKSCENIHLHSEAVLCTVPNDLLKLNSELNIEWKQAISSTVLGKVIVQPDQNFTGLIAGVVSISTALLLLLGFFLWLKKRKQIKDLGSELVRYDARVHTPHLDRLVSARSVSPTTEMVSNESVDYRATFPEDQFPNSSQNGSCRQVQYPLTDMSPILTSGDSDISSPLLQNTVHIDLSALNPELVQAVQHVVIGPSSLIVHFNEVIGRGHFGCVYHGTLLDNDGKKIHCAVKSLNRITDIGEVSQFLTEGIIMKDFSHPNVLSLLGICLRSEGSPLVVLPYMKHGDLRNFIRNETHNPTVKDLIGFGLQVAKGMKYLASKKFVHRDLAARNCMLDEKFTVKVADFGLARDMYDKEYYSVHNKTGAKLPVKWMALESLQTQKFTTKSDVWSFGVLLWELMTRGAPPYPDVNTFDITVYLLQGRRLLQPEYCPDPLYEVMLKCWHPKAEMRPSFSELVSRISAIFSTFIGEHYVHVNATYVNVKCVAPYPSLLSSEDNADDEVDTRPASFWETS
Epidermal growth factor receptor, sequence (P00533 whole entry): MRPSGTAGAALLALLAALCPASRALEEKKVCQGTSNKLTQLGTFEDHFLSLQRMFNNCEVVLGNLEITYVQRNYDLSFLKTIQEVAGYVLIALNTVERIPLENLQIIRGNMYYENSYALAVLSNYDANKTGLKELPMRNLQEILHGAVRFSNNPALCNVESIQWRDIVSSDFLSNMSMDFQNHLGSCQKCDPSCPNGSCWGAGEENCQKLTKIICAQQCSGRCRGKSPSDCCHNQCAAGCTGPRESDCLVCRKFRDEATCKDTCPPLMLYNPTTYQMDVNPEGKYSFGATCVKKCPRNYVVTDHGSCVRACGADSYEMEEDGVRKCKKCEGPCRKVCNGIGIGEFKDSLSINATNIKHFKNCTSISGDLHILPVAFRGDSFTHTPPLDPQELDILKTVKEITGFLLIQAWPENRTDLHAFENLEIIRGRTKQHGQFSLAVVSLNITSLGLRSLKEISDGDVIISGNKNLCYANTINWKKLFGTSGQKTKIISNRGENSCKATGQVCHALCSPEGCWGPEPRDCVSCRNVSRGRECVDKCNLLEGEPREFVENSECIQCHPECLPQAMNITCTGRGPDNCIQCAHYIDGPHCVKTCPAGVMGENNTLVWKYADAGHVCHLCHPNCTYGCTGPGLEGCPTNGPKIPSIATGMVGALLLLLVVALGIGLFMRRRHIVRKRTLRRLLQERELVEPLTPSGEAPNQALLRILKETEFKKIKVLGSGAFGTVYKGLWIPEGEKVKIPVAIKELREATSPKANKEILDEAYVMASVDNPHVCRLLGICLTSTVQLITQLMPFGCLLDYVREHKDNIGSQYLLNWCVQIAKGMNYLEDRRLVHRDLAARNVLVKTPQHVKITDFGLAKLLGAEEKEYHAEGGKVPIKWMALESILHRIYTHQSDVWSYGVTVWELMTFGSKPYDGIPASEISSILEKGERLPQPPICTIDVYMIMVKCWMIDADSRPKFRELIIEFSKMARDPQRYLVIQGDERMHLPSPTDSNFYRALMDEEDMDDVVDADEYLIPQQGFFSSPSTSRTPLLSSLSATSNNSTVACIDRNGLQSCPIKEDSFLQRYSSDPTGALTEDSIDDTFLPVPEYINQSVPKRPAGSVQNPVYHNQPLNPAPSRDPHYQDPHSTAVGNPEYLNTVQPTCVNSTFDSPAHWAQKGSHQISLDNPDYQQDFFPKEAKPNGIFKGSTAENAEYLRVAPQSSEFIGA
Platelet-derived growth factor receptor beta, sequence (P09619 whole entry): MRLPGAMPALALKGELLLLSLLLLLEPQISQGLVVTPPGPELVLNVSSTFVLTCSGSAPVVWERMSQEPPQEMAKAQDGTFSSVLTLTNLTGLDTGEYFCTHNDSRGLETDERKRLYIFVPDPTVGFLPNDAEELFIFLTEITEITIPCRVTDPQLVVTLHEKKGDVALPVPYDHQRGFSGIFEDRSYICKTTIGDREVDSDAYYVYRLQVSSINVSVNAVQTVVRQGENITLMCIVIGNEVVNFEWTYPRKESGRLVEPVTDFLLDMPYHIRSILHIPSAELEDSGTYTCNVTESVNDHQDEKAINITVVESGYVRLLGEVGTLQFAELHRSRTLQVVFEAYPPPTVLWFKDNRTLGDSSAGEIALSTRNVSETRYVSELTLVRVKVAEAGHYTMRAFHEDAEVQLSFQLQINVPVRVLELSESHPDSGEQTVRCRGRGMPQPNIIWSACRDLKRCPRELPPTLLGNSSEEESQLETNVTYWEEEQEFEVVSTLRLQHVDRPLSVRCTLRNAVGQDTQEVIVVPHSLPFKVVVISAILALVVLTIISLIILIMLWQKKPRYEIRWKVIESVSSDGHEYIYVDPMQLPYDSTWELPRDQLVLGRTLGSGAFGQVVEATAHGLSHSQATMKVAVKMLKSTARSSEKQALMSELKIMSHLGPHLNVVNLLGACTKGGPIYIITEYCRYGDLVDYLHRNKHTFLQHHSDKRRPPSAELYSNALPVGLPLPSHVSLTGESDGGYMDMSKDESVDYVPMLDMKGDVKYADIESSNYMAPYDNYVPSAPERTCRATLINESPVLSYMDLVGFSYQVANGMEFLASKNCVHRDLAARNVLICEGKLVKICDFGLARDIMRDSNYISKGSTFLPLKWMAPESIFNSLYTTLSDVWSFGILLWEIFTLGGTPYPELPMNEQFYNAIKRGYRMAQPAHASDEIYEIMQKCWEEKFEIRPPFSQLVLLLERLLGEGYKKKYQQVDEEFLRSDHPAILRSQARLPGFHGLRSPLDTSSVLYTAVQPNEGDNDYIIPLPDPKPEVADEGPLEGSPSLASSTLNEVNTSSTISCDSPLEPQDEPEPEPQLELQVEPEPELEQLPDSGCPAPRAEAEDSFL
Mast/stem cell growth factor receptor Kit, sequence (P10721 whole entry): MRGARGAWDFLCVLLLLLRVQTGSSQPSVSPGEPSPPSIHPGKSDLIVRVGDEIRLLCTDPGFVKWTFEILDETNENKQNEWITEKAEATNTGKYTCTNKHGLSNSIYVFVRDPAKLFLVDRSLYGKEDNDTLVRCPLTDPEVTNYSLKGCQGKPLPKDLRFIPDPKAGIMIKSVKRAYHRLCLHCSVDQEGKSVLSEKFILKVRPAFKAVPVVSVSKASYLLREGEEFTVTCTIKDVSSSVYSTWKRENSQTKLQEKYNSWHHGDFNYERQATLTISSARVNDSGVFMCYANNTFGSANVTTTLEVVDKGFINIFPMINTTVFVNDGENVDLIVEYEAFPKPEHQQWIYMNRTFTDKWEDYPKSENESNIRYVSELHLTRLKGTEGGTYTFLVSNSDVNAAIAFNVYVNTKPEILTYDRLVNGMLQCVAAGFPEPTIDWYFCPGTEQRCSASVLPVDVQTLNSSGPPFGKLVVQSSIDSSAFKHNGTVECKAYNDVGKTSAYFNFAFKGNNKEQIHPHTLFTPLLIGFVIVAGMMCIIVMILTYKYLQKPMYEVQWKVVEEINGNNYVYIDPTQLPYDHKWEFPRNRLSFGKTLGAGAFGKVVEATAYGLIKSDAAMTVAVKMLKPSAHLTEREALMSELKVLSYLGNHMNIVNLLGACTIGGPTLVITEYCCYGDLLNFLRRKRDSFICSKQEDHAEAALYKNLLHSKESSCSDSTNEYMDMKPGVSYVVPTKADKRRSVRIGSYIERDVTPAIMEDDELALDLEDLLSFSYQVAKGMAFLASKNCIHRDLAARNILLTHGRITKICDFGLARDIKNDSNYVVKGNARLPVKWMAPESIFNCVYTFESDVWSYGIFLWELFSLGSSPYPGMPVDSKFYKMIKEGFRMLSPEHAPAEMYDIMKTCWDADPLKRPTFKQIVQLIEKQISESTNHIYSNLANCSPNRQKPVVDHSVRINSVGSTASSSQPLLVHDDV

For the molecule `O=C(Nc1ccc(Oc2ccnc3[nH]ccc23)cc1)c1cc2cccnc2n(-c2ccc(F)c(Cl)c2)c1=O`, the results for the IC50 in assay [1] and in [2] were 680 nM and 560 nM, respectively.
For `Cn1ccc2c(Oc3ccc(NC(=O)c4cc5cccnc5n(-c5ccc(Br)cc5)c4=O)cc3)ccnc21`, the IC50 – broadly, the concentration at which inhibition is half-maximal – in assay [1] worked out at 680 nM; in assay [2] it was 690 nM.
As to `O=C(Nc1ccc(Oc2ccnc3[nH]ccc23)c(F)c1)c1cc2cccnc2n(-c2ccccc2)c1=O`, the IC50 in assay [3] was determined as 180 nM; in assay [1], 190 nM; in [2] it was 160 nM; in [4] it was 1260 nM.
Regarding `COc1ccc(-n2c(=O)c(C(=O)Nc3ccc(Oc4ccnc5c4ccn5C)c(F)c3)cc3cccnc32)cc1`, the IC50 in [1] came out at 2750 nM; in [2] it was 1290 nM.
Consider `Cn1ccc2c(Oc3ccc(NC(=O)c4cc5cccnc5n(-c5ccccc5)c4=O)cc3)ccnc21`, for which the IC50 in assay [3] was 560 nM; in assay [1] it was 850 nM; in [2] it was 620 nM; in assay [4], 5030 nM.
In the case of `Cn1ccc2c(Oc3ccc(NC(=O)c4cc5cccnc5n(-c5ccc(C(F)(F)F)cc5Cl)c4=O)cc3F)ccnc21`, the half-inhibitory concentration (IC50) in [3] was 6010 nM; in assay [1] it was 3530 nM; in [2], 5830 nM; in assay [4] it was 10200 nM.
Turning to `O=C(Nc1ccc(Oc2ccnc3[nH]ccc23)cc1)c1cc2cccnc2n(-c2ccc(F)cc2)c1=O`, the IC50 stood at 190 nM in [3], 210 nM in assay [1], 160 nM in assay [2] and 1360 nM in [4].
As to `COc1ccc(-n2c(=O)c(C(=O)Nc3ccc(Oc4ccnc5[nH]ccc45)c(F)c3)cc3cccnc32)cc1`, the IC50 was determined as 610 nM in assay [1] and 540 nM in assay [2].
As to `Cn1ccc2c(Oc3ccc(NC(=O)c4cc5cccnc5n(-c5ccc(F)c(Cl)c5)c4=O)cc3)ccnc21`, the IC50 is 1210 nM in [3], 820 nM in assay [1], 1210 nM in assay [2] and 2350 nM in [4].
`O=C(Nc1ccc(Oc2ccnc3[nH]ccc23)c(F)c1)c1cc2cccnc2n(-c2ccc(Cl)cc2)c1=O`: the IC50 in [1] was found to be 110 nM; in assay [2], 82 nM.
Take `Cn1ccc2c(Oc3ccc(NC(=O)c4cc5cccnc5n(-c5ccc(Cl)cc5)c4=O)cc3F)ccnc21`: the IC50 amounted to 350 nM in assay [1] and 220 nM in assay [2].
With `Cn1ccc2c(Oc3ccc(NC(=O)c4cc5cccnc5n(-c5ccc(Cl)cc5)c4=O)cc3)ccnc21`, the 50% inhibitory concentration (IC50) came out at 630 nM in [1] and 730 nM in [2].
Take `O=C(Nc1ccc(Oc2ccnc3[nH]ccc23)cc1)c1cc2cccnc2n(-c2ccccc2)c1=O`: the IC50 in assay [3] was 380 nM; in assay [1], 360 nM; in assay [2] it was 290 nM; in assay [4] it was 1580 nM.
With `Cn1ccc2c(Oc3ccc(NC(=O)c4cc5cccnc5n(-c5ccc(F)c(Cl)c5)c4=O)cc3F)ccnc21`, the concentration for half-maximal inhibition (IC50) in assay [1] was determined as 3560 nM; in [2], 2460 nM.
Turning to `COc1ccc(-n2c(=O)c(C(=O)Nc3ccc(Oc4ccnc5[nH]ccc45)cc3)cc3cccnc32)cc1`, the 50% inhibitory concentration (IC50) in assay [3] worked out at 960 nM; in assay [1], 930 nM; in assay [2], 1260 nM; in assay [4] it was 2350 nM.
In the case of `Cn1ccc2c(Oc3ccc(NC(=O)c4cc5cccnc5n(-c5ccccc5)c4=O)cc3F)ccnc21`, the IC50 in assay [3] came out at 550 nM; in assay [1], 430 nM; in assay [2] it was 510 nM; in assay [4], 3590 nM.
In the case of `COc1ccc(-n2c(=O)c(C(=O)Nc3ccc(Oc4ccnc5c4ccn5C)cc3)cc3cccnc32)cc1`, the half-inhibitory concentration (IC50) in [3] came to 1920 nM; in assay [1], 3460 nM; in [2], 2050 nM; in assay [4], 5150 nM.
As to `O=C(Nc1ccc(Oc2ccnc3[nH]ccc23)cc1)c1cc2cccnc2n(-c2ccc(C(F)(F)F)cc2Cl)c1=O`, the IC50 in assay [3] stood at 1950 nM; in assay [1], 3230 nM; in [2], 2160 nM; in assay [4], 6030 nM.
The like results for `O=C(Nc1ccc(Oc2ccnc3[nH]ccc23)c(F)c1)c1cc2cccnc2n(-c2ccc(F)c(Cl)c2)c1=O` were, in that order, 1050 nM, 630 nM, 310 nM and 5230 nM.
With `Cn1ccc2c(Oc3ccc(NC(=O)c4cc5cccnc5n(-c5ccc(Br)cc5)c4=O)cc3F)ccnc21`, the IC50 turned out to be 420 nM in [3], 390 nM in assay [1], 330 nM in assay [2] and 2580 nM in assay [4].
In the case of `O=C(Nc1ccc(Oc2ccnc3[nH]ccc23)cc1)c1cc2cccnc2n(-c2ccc(Cl)cc2)c1=O`, the IC50 in assay [3] worked out at 290 nM; in [1], 290 nM; in assay [2], 280 nM; in [4] it was 3370 nM.
On to `O=C(Nc1ccc(Oc2ccnc3[nH]ccc23)c(F)c1)c1cc2cccnc2n(-c2ccc(Br)cc2)c1=O`, for which the 50% inhibitory concentration (IC50) in assay [3] was 260 nM; in assay [1], 210 nM; in [2], 120 nM; in [4] it was 1510 nM.
`O=C(Nc1ccc(Oc2ccnc3[nH]ccc23)cc1)c1cc2cccnc2n(-c2ccc(Br)cc2F)c1=O`: the IC50 in [1] turned out to be 1570 nM; in [2] it was 2360 nM.
In the same order, the values of `Cn1ccc2c(Oc3ccc(NC(=O)c4cc5cccnc5n(-c5ccc(Br)cc5F)c4=O)cc3)ccnc21` are 1630 nM and 2580 nM.
Consider `O=C(Nc1ccc(Oc2ccnc3[nH]ccc23)c(F)c1)c1cc2cccnc2n(-c2ccc(F)cc2)c1=O`, for which the IC50 in assay [5] came out at 1.92 nM; in assay [3] it was 87 nM; in assay [6], 152 nM; in [1], 62 nM; in assay [8], 684 nM; in assay [9], 633 nM. The IC50 was found to be 1.81 nM in [10], 1.16 nM in assay [13], 36 nM in [2] and 620 nM in [4]. Moreover, the “Ratio IC50” value amounted to 7.2 in assay [7], 5.2 in [11] and 3.2 in assay [12].
`O=C(Nc1ccc(Oc2ccnc3[nH]ccc23)c(F)c1)c1cc2cccnc2n(-c2ccc(C(F)(F)F)cc2Cl)c1=O`: the IC50 in assay [1] was 1020 nM; in assay [2], 1360 nM.
For `Cn1ccc2c(Oc3ccc(NC(=O)c4cc5cccnc5n(-c5ccc(F)cc5)c4=O)cc3F)ccnc21`, the IC50 in [3] was 250 nM; in assay [1], 280 nM; in assay [2], 160 nM; in assay [4] it was 1320 nM.
As to `O=C(Nc1ccc(Oc2ccnc3[nH]ccc23)cc1)c1cc2cccnc2n(-c2ccc(Br)cc2)c1=O`, the figures for the half-inhibitory concentration (IC50) in [1] and in assay [2] were 280 nM and 270 nM, respectively.
Consider `Cn1ccc2c(Oc3ccc(NC(=O)c4cc5cccnc5n(-c5ccc(F)cc5)c4=O)cc3)ccnc21`, for which the IC50 was determined as 260 nM in [3], 210 nM in assay [1], 250 nM in assay [2] and 2120 nM in [4].
Consider `Cn1ccc2c(Oc3ccc(NC(=O)c4cc5cccnc5n(-c5ccc(C(F)(F)F)cc5Cl)c4=O)cc3)ccnc21`, for which the IC50 in assay [3] amounted to 6950 nM; in assay [1], 8250 nM; in assay [2], 6050 nM; in assay [4], 12600 nM.
Consider `Cn1ccc2c(Oc3ccc(NC(=O)c4cc5cccnc5n(-c5ccc(Br)cc5F)c4=O)cc3F)ccnc21`, for which the IC50 in assay [3] was 3150 nM; in [1], 2690 nM; in assay [2] it was 3290 nM; in assay [4], 6470 nM.
For the molecule `O=C(Nc1ccc(Oc2ccnc3[nH]ccc23)c(F)c1)c1cc2cccnc2n(-c2ccc(Br)cc2F)c1=O`, the concentration for half-maximal inhibition (IC50) in assay [1] came out at 460 nM; in assay [2] it was 820 nM.
